Experimental data as given in US20250223268A1, “4-Methylsulfonylbenzamide Compound, Preparation Method, Herbicidal Composition And Use” (Jiangsu Flag Chemical Industry Co., Ltd., priority 2022, published 2025).

Assays:
Assay in all cases: Greenhouse herbicidal activity assay, post-emergence
Type in all cases: in vivo
Cyperus iria = conditions: Post-emergence test, rate 150 g a.i./hm^2, grade by fresh weight inhibition rate; for pest or weed control at 150 g/ha: Cyperus iria, read-out: Control efficacy grade, Cyperus iria
Summary of the method: (§1)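 Weeds and crops grown in pots of nutrient soil in a growth chamber to the 3-6 leaf stage, then foliar-sprayed and air-dried. Fresh weight inhibition scored 14-21 days after treatment and graded A (≥80%) through E (<20%).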

Digitaria sanguinalis = conditions: Post-emergence test, rate 150 g a.i./hm^2, grade by fresh weight inhibition rate; for pest or weed control at 150 g/ha: Digitaria sanguinalis, read-out: Control efficacy grade, Digitaria sanguinalis
Summary of the method: as §1

Echinochloa crusgalli = conditions: Post-emergence test, rate 150 g a.i./hm^2, grade by fresh weight inhibition rate; for pest or weed control at 150 g/ha: Echinochloa crus-galli, read-out: Control efficacy grade, Echinochloa crusgalli
Summary of the method: as §1

Leptochloa chinensis = conditions: Post-emergence test, rate 150 g a.i./hm^2, grade by fresh weight inhibition rate; for pest or weed control at 150 g/ha: Dinebra chinensis, read-out: Control efficacy grade, Leptochloa chinensis
Summary of the method: as §1

Eclipta prostrata = conditions: Post-emergence test, rate 150 g a.i./hm^2, grade by fresh weight inhibition rate; for pest or weed control at 150 g/ha: Eclipta prostrata, read-out: Control efficacy grade, Eclipta prostrata
Summary of the method: as §1

Structure (SMILES)	pest or weed control at 150 g/ha (Cyperus iria)	pest or weed control at 150 g/ha (Digitaria sanguinalis)	pest or weed control at 150 g/ha (Echinochloa crusgalli)	pest or weed control at 150 g/ha (Leptochloa chinensis)	pest or weed control at 150 g/ha (Eclipta prostrata)	Control efficacy grade, Cyperus iria (Cyperus iria)	Control efficacy grade, Digitaria sanguinalis (Digitaria sanguinalis)	Control efficacy grade, Echinochloa crusgalli (Echinochloa crusgalli)	Control efficacy grade, Leptochloa chinensis (Leptochloa chinensis)	Control efficacy grade, Eclipta prostrata (Eclipta prostrata)
Cc1nnc(NC(=O)c2ccc(S(C)(=O)=O)c([S+]([O-])C(C)C)c2Cl)o1 (stereo not shown) [Compound 3-7, 2-chloro-3-(isopropylsulfinyl)-N-(5-methyl-1,3,4-oxadiazol-2-yl)-4-(methylsulfonyl)benzamide]	80 to 100%	80 to 100%	80 to 100%	80 to 100%	80 to 100%	–	–	–	–	–
CCCCSc1c(S(C)(=O)=O)ccc(C(=O)Nc2nnc(C)o2)c1Cl [Compound 3-11]	–	–	–	–	–	A (Fresh weight inhibition rate≥80% to 100%)	A (Fresh weight inhibition rate≥80% to 100%)	B (Fresh weight inhibition rate≥260% to <80%)	A (Fresh weight inhibition rate≥80% to 100%)	A (Fresh weight inhibition rate≥80% to 100%)
Cc1nnc(NC(=O)c2ccc(S(C)(=O)=O)c(SCC(C)C)c2Cl)o1 [Compound 3-27]	–	–	–	–	–	A (Fresh weight inhibition rate≥80% to 100%)	A (Fresh weight inhibition rate≥80% to 100%)	A (Fresh weight inhibition rate≥80% to 100%)	A (Fresh weight inhibition rate≥80% to 100%)	A (Fresh weight inhibition rate≥80% to 100%)
Cc1nnc(NC(=O)c2ccc(S(C)(=O)=O)c(SCC3CC3)c2Cl)o1 [Compound 3-37]	–	–	–	–	–	A (Fresh weight inhibition rate≥80% to 100%)	A (Fresh weight inhibition rate≥80% to 100%)	A (Fresh weight inhibition rate≥80% to 100%)	A (Fresh weight inhibition rate≥80% to 100%)	A (Fresh weight inhibition rate≥80% to 100%)
Cc1nnc(NC(=O)c2ccc(S(C)(=O)=O)c(SCCC(C)C)c2Cl)o1 [Compound 3-52]	–	–	–	–	–	A (Fresh weight inhibition rate≥80% to 100%)	B (Fresh weight inhibition rate≥260% to <80%)	B (Fresh weight inhibition rate≥260% to <80%)	A (Fresh weight inhibition rate≥80% to 100%)	A (Fresh weight inhibition rate≥80% to 100%)
Cc1nnc(NC(=O)c2ccc(S(C)(=O)=O)c(SC3CC3)c2Cl)o1 [Compound 3-77]	–	–	–	–	–	A (Fresh weight inhibition rate≥80% to 100%)	A (Fresh weight inhibition rate≥80% to 100%)	A (Fresh weight inhibition rate≥80% to 100%)	A (Fresh weight inhibition rate≥80% to 100%)	A (Fresh weight inhibition rate≥80% to 100%)
Cc1nnc(NC(=O)c2ccc(S(C)(=O)=O)c(SC3CCC3)c2Cl)o1 [Compound 3-82]	–	–	–	–	–	A (Fresh weight inhibition rate≥80% to 100%)	A (Fresh weight inhibition rate≥80% to 100%)	A (Fresh weight inhibition rate≥80% to 100%)	A (Fresh weight inhibition rate≥80% to 100%)	A (Fresh weight inhibition rate≥80% to 100%)
Cc1nnc(NC(=O)c2ccc(S(C)(=O)=O)c(SC3CCCC3)c2Cl)o1 [Compound 3-87]	–	–	–	–	–	A (Fresh weight inhibition rate≥80% to 100%)	A (Fresh weight inhibition rate≥80% to 100%)	A (Fresh weight inhibition rate≥80% to 100%)	A (Fresh weight inhibition rate≥80% to 100%)	A (Fresh weight inhibition rate≥80% to 100%)
Cc1nnc(NC(=O)c2ccc(S(C)(=O)=O)c(SCC(F)(F)F)c2Cl)o1 [Compound 3-97]	–	–	–	–	–	A (Fresh weight inhibition rate≥80% to 100%)	A (Fresh weight inhibition rate≥80% to 100%)	A (Fresh weight inhibition rate≥80% to 100%)	A (Fresh weight inhibition rate≥80% to 100%)	A (Fresh weight inhibition rate≥80% to 100%)
Cc1nnc(NC(=O)c2ccc(S(C)(=O)=O)c(SCC(F)F)c2Cl)o1 [Compound 3-102]	–	–	–	–	–	A (Fresh weight inhibition rate≥80% to 100%)	A (Fresh weight inhibition rate≥80% to 100%)	A (Fresh weight inhibition rate≥80% to 100%)	A (Fresh weight inhibition rate≥80% to 100%)	A (Fresh weight inhibition rate≥80% to 100%)
C=CCSc1c(S(C)(=O)=O)ccc(C(=O)Nc2nnc(C)o2)c1Cl [Compound 3-112]	–	–	–	–	–	A (Fresh weight inhibition rate≥80% to 100%)	A (Fresh weight inhibition rate≥80% to 100%)	A (Fresh weight inhibition rate≥80% to 100%)	A (Fresh weight inhibition rate≥80% to 100%)	A (Fresh weight inhibition rate≥80% to 100%)
C=C(C)CSc1c(S(C)(=O)=O)ccc(C(=O)Nc2nnc(C)o2)c1Cl [Compound 3-142]	–	–	–	–	–	A (Fresh weight inhibition rate≥80% to 100%)	A (Fresh weight inhibition rate≥80% to 100%)	A (Fresh weight inhibition rate≥80% to 100%)	A (Fresh weight inhibition rate≥80% to 100%)	A (Fresh weight inhibition rate≥80% to 100%)
C#CCSc1c(S(C)(=O)=O)ccc(C(=O)Nc2nnc(C)o2)c1Cl [Compound 3-147]	–	–	–	–	–	B (Fresh weight inhibition rate≥260% to <80%)	A (Fresh weight inhibition rate≥80% to 100%)	B (Fresh weight inhibition rate≥260% to <80%)	A (Fresh weight inhibition rate≥80% to 100%)	A (Fresh weight inhibition rate≥80% to 100%)
Cc1nnc(NC(=O)c2ccc(S(C)(=O)=O)c(SCC#N)c2Cl)o1 [Compound 3-192]	–	–	–	–	–	A (Fresh weight inhibition rate≥80% to 100%)	A (Fresh weight inhibition rate≥80% to 100%)	A (Fresh weight inhibition rate≥80% to 100%)	A (Fresh weight inhibition rate≥80% to 100%)	A (Fresh weight inhibition rate≥80% to 100%)
Cc1nnc(NC(=O)c2ccc(S(C)(=O)=O)c(SCCC#N)c2Cl)o1 [Compound 3-197]	–	–	–	–	–	A (Fresh weight inhibition rate≥80% to 100%)	A (Fresh weight inhibition rate≥80% to 100%)	A (Fresh weight inhibition rate≥80% to 100%)	A (Fresh weight inhibition rate≥80% to 100%)	A (Fresh weight inhibition rate≥80% to 100%)
COCSc1c(S(C)(=O)=O)ccc(C(=O)Nc2nnc(C)o2)c1Cl [Compound 3-262]	–	–	–	–	–	A (Fresh weight inhibition rate≥80% to 100%)	A (Fresh weight inhibition rate≥80% to 100%)	A (Fresh weight inhibition rate≥80% to 100%)	A (Fresh weight inhibition rate≥80% to 100%)	A (Fresh weight inhibition rate≥80% to 100%)
CCCSc1c(S(C)(=O)=O)ccc(C(=O)Nc2nnco2)c1Cl [Compound 3-267, 2-chloro-4-(methylsulfonyl)-N-(1,3,4-oxadiazol-2-yl)-3-(propylthio)benzamide]	80 to 100%	80 to 100%	80 to 100%	80 to 100%	80 to 100%	–	–	–	–	–
